Laboratory results published in patent publication US11584712B2, “Alkylamine-substituted perthiocarbamates as dual precursors to hydropersulfide and carbonyl sulfide” (The Johns Hopkins University, priority 2020, dated 2023).
Several values for one entry are separate records, joined by “and”; a condition that tells them apart may be missing. Equal values may be shown once. Entries after “also recorded” stand apart in the source; their conditions may differ.

What was measured:
Assay type in all cases: physicochemical
[1] = COS release using membrane inlet mass spectrometry (MIMS); settings: for COS release (m/z=60 signal): precursor 50 μM, pH 7.4 phosphate buffer saline with DTPA, 37° C.
Method: (§1) COS was analyzed using a Hiden HPR-40 MIMS system with a sample cell and membrane probe that have been optimized to detect gases dissolved in aqueous solution as described previously. Cline et al., 2011. A stock solution of N-acetyl-cysteine (25 mM) was prepared in DI water. RSSH precursor stock solutions (5 mM) were prepared in DMSO. These solutions were degassed by purging with nitrogen for 10 min before COS release analysis. Typically, 20 mL phosphate buffer solution (10 mM) was added to the sample cell, degassed and purged with a continuous flow of argon for 15 min. N-acetyl cysteine (200 μL, 25 mM) and RSSH precursor (200 μL, 5 mM) were then injected using a gas tight syringe and ion current at m/z 60 (COS^+) were collected for 2 h (source pressure was approximately 1×10^−7 to 5×10^−7 Torr).
as §1, with “(COS*)” for “(COS^+)”

[2] = Kinetics of RSSH release from precursors monitored by HPLC (HPE-IAM trapping); settings: for Hydropersulfide Yield (%): precursor 100 μM, HPE-IAM 5 mM, pH 7.4 phosphate buffer with DTPA
Method: (§2) Precursors 7a-d were dissolved in DMSO to afford 10 mM stock solutions. HPE-IAM was dissolved in DMSO to obtain a 100 mM stock solution. […] This solution was pre-incubated for 10 min at 37° C. and then precursor 7a-d (30 μL, 10 mM) were independently added into the mixture. The resulting solution was incubated at 37° C. At different time points, an aliquot of 200 μL was taken and quenched with 200 μL […] solution. These samples were stored at 0° C. until HPLC analysis was performed. The sample (20 μL) was injected into a high-performance liquid chromatography (HPLC) equipped with Phenomenex C-18 reverse phase column (250 mm×4.6 mm, 5 μm). HPLC Method: mobile phase A (H2O) and mobile phase B (ACN), flow rate: 1 mL/min, run time: 20 min, the gradient elution method: 10% to 40% B from 0 to 12 min, 40% to 80% B from 12 to 20 min. The elution was monitored by a UV detector at 275 nm. A calibration curve was generated using RSS-HPE-AM 9 to quantify RSSH generation from 7a-d.
as §2, with “by a variable UV detector” for “by a UV detector”

[3] = RSSH generation in the presence of N-acetyl cysteine by UPLC-MS; settings: NAC 500 μM, 37° C.; for Byproduct % (yield of cyclic urea 2a-d): precursor 100 μM, pH 7.4 ammonium bicarbonate buffer with DTPA
Method: […] The resulting mixture was incubated at 37° C. An aliquot (200 μL) of reaction mixture was withdrawn at specified time points and quenched with 1% formic acid (200 μL). 3-Amino-benzoic acid (50 μM) was added to each sample as internal standard prior to UPLC-MS analysis. To quantify 2a-d generated from these precursors, a calibration curve for each individual cyclic urea with known concentrations was independently generated.
[…] The resulting mixture was incubated at 37° C. An aliquot ([…]) of reaction mixture was withdrawn at specified time points and quenched with 1% formic acid (200 μL). 3-amino-benzoic acid (50 μM) was added to each sample as internal standard prior to UPLC-MS analysis. To quantify 2a-d generated from these precursors, the calibration curve of each individual cyclic urea with known concentrations was independently generated.

Compound | COS release (m/z=60 signal) ([1]; NAC 0.25 mM (5 equiv.)) | Hydropersulfide Yield (%) ([2]; 37° C.) | Byproduct % (yield of cyclic urea 2a-d) [3] | COS release (m/z=60 signal) ([1]; without NAC) | rate constant k of RSSH release ([2]; pH 6.0) [min⁻¹] | first-order rate constant k of RSSH release (RSS-HPE-AM 9 generation) ([2]; pH 7.4 phosphate buffer, HPE-IAM, 37° C., HPLC) | rate constant k of RSSH release ([2]; pH 8.0) [min⁻¹] | COS release in the presence of GSH compared with NAC ([1]; pH 7.4, GSH) | RSSH release under acidic conditions ([3]; 7b 100 μM, pH 6.0 ammonium acetate buffer 50 mM, 12 h)
3-(((3-acetamido-4-methoxy-2-methyl-4-oxobutan-2-yl)disulfannecarbonyl)(methyl)amino)-N-methylpropan-1-aminium [Precursor 7c] | produce mainly COS | 90% and 90 ± 1% | 19.2 ± 0.5% | – | – | – | – | – | –
CNCCN(C)C(=O)SSC(C)(C)C(NC(C)=O)C(=O)OC (stereo not drawn) [Precursor 7a, 2-(((3-acetamido-4-methoxy-2-methyl-4-oxobutan-2-yl)disulfannecarbonyl)(methyl)amino)-N-methylethan-1-aminium] | small additional increase | 89% and 89 ± 3% | 87% and 87 ± 1% | very small increase | 0.031 | 0.505 min⁻¹ and 0.505 ± 0.019 min⁻¹ | 2.58 | – | –
COC(=O)C(NC(C)=O)C(C)(C)SSC(=O)N(C)CCN (stereo not drawn) [Precursor 7b, 2-(((3-acetamido-4-methoxy-2-methyl-4-oxobutan-2-yl)disulfannecarbonyl)(methyl)amino)ethan-1-aminium] | increased production of COS | 94 ± 1% | 58% and 58 ± 0.7% | – | – | – | – | slightly higher/faster COS release | still observed, albeit at a slower rate; also recorded: slow RSSH release under acidic conditions
